# According to publication PMC5059489, “Mechanistic evaluation and transcriptional signature of a glutathione S-transferase omega 1 inhibitor” (Nature Communications, 2016):
# Tests used:
# PDI = PDI (Homo sapiens, UniProt P07237); assay: Cellular thermal-shift assay, PDI; type: binding; design: endogenous in cells; host or cells: HCT116 p53+/+ cell lysate; settings: HCT116p53+/+ cell lysate
# Experimental: Cellular thermal-shift assay was performed as described previously. Briefly, HCT116^p53+/+ cells were collected, washed with PBS and diluted with cell lysis buffer (25 mM Tris-HCl (pH 7.5) and 10 mM MgCl2) supplemented with complete protease inhibitor cocktail. The cell suspension was frozen and thawed three times in liquid nitrogen. The soluble fraction was separated from debris by spinning down at 20,000g for 20 min. […] After 30 min incubation at room temperature, the treated lysates were further divided into smaller aliquots (50 μl), which were then heated at different temperatures for 3 min on a Veriti thermal cycler (Applied Biosystems) followed by cooling for 3 min to room temperature. The heated lysates were centrifuged at 20,000g for 20 min at 4°C to separate the soluble fractions from precipitates. Supernatants were quantified and analysed by western blotting.
# (§1) Supplementary Fig. 11. Target engagement by C1-27. (a-c) CETSA melt curves for GSTO1 (a ), PDI (b ) and Keap1 (c) in HCT116p53+/+ cell lysate treated with C1-27 (100 µM). 1% DMSO was used as control.
# (§2) Data presented are mean ± SD of 3 independent experiments. A negative shift in the melting curves was […]
# (Below) Representative western blots showing soluble fractions of the target proteins following drug treatment and heating. […]
# Keap1 = target: T1, Keap1 (Homo sapiens, UniProt Q14145); assay: Cellular thermal-shift assay, Keap1; type: binding; settings: HCT116p53+/+ cell lysate; 100 µM
# T1 construct: endogenous in cells; host or cells: HCT116 p53+/+ cell lysate
# T1 sequence (Q14145 whole entry): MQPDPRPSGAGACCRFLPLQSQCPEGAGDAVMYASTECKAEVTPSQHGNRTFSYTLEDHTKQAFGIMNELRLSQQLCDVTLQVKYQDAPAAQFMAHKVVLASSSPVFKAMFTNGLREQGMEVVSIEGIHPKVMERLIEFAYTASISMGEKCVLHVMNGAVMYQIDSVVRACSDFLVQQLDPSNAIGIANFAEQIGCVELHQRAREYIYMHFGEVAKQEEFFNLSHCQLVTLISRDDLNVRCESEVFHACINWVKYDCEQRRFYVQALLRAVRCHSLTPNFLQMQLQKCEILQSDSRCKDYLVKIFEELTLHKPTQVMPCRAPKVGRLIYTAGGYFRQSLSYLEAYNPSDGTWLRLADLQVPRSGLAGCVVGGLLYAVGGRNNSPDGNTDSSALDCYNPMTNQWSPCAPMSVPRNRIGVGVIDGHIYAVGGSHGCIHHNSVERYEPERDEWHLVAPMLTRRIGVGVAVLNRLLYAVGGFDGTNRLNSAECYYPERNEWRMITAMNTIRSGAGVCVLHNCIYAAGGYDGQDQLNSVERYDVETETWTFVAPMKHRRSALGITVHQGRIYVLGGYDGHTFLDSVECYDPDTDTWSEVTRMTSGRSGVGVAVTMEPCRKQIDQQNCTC
# Experimental: Cellular thermal-shift assay was performed as described previously. Briefly, HCT116^p53+/+ cells were collected, washed with PBS and diluted with cell lysis buffer (25 mM Tris-HCl (pH 7.5) and 10 mM MgCl2) supplemented with complete protease inhibitor cocktail. The cell suspension was frozen and thawed three times in liquid nitrogen. The soluble fraction was separated from debris by spinning down at 20,000g for 20 min. Cell lysate was then diluted with lysate buffer and divided into two aliquots—one treated with C1-27 (100 μM) and the other treated with 1% DMSO. After 30 min incubation at room temperature, the treated lysates were further divided into smaller aliquots (50 μl), which were then heated at different temperatures for 3 min on a Veriti thermal cycler (Applied Biosystems) followed by cooling for 3 min to room temperature. The heated lysates were centrifuged at 20,000g for 20 min at 4°C to separate the soluble fractions from precipitates. Supernatants were quantified and analysed by western blotting.
# as §1, §2
# Sequence of PDI (P07237 18-508): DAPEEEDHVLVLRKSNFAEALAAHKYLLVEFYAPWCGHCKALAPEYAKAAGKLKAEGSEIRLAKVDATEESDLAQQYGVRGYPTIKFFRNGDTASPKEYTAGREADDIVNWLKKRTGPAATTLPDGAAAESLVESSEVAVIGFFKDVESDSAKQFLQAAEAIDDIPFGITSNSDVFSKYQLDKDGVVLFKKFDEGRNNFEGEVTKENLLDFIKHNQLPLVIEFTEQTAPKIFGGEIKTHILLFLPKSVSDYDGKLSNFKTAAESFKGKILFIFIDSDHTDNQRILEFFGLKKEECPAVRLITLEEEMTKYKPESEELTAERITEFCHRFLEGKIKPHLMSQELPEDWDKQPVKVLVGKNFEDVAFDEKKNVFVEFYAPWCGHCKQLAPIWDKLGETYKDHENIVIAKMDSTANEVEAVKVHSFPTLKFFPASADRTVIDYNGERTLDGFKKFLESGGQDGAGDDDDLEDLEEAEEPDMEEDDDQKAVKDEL
smiles,measurement,setting,value
CN(C)S(=O)(=O)c1cc(NC(=O)CCl)ccc1Cl [C1-27],CETSA thermal shift of PDI,PDI; 10 µM and 1 µM,no shift
same,CETSA thermal shift of PDI,PDI; 100 µM,thermal shift
same,CETSA thermal shift of Keap1,Keap1,no shift
